Reference: US11044909B2, “Composition for destruction of microalgae or sphaerocarpus” (CUREARTH, INC., priority 2015, dated 2021)
Read-outs that look alike come from different tables or passages of the source.

How the values were obtained:
Assay in all cases: Microalgae-destroying effect by IC50 measurement (cell count)
Type in all cases: cell-based
[1] = tested on: Chattonella Marina; conditions: 24 h, cultured 1 day, read-out: IC50 Chattonella Marina
Procedure: (§1) The IC50 value was obtained according to Equation 1: […]
(§2) First, the above-listed microalgae were cultured in a culture flask at a temperature of about 20° C. under light conditions, and a medium used was Guillard's f/2 medium which is commonly used in the art (Guillard R R L and Keller M D. Culturing dinoflagellates. In: Spector (Ed.), Dinoflagellates. New York: Academic Press; 1984, 391442).
(§3) After the cultured microalgae were transferred onto a 24-well plate, Chattonella Marina, Heterosigma circularisquama, Cochlodinium Polykrikoides, and Heterosigma akashiwo, which were in an exponential growth phase, were treated with Compounds 1 to 3, 5 to 10, 12, 13, 17 to 43, and 45 to 47 synthesized in Examples 1 to 3, 5 to 10, 12, 13, 17 to 43, and 45 to 47 at concentrations of 0.1 uM, 0.2 uM, 0.5 uM, 1 uM, 2 uM, and 5 uM, and then cultured for 1 day.
(§4) Control groups were not treated with any of the compounds synthesized in the above-identified examples. After incubation, the number of cells of each alga was counted using a Burker-Tukr hemocytometer, and IC50 values were calculated according to Equation 1 using SigmaPlot Version 11.2 software (Standard curve: the four-parameter logistic curve).

[2] = tested on: Heterocapsa Circularisquama; conditions: 24 h, cultured 1 day
Procedure: as §1, §2, §3, §4

[3] = tested on: Heterosigma Akashiwo; conditions: 24 h, cultured 1 day, read-out: IC50 Heterosigma Akashiwo
Procedure: as §1, §2, §3, §4

[4] = tested on: Cochlodinium Polykrikoides; conditions: Margalefidinium polykrikoides, 24 h, 0.1-5 uM, cultured 1 day, read-out: IC50 Cochlodinium Polykrikoides
Procedure: (§5) The IC50 value was obtained according to Equation 1:
(§6) The algicidal activity of each compound was calculated using Equation 2: Algicidal activity (%)=(1−Tt/Ct)×100 <Equation 2>
(§7) In Equation 2, T (treatment group) and C (control group) represent algae densities in cell counts when each compound was inoculated and was not inoculated, respectively, and t represents the number of days which had passed after the inoculation.
as §2, §3, §4

[5] = tested on: Microcystis aeruginosa; conditions: read-out: IC50 Microcystis aeruginosa
Procedure: as §5, §6, §7, §2
Microcystis aeruginosa was treated with Compounds 1 to 3, 5 to 10, 12, 13, 17 to 43, and 45 to 51 synthesized in Examples 1 to 3, 5 to 10, 12, 13, 17 to 43, and 45 to 51 at concentrations of 0.1 uM, 0.2 uM, 0.5 uM, 1 uM, 2 uM, 5 uM, 10 uM, 15 uM, and 20 uM and then cultured for 5 days.
as §4

[6] = Table 1, 3,4-dichlorobenzylamines, 0.1-5 uM
[7] = Table 1, 3,4-dichlorobenzylamines, 0.1-5 uM, read-out: IC50 Heterocapsa Circularisquama
[8] = Table 1, 3,4-dichlorobenzylamines
[9] = Microcystis aeruginosa, 120 h, Table 1, 3,4-dichlorobenzylamines, 0.1-20 uM, cultured 5 days
[10] = Table 2, 0.1-5 uM, read-out: IC50 Heterocapsa Circulariaquama

| Structure (SMILES) | IC50 [1, 6] | IC50 [2, 7] | IC50 [3, 6] | IC50 [4, 8] | IC50 [5, 9] | IC50 ([1]; Table 2, 0.1-5 uM) | IC50 [2, 10] | IC50 ([3]; Table 2, 0.1-5 uM) | IC50 ([4]; Table 2) | IC50 ([5]; Microcystis aeruginosa, 120 h) | IC50 ([5]; Table 1, 3,4-dichlorobenzylamines, 0.1-20 uM, cultured 5 days) |
| --- | --- | --- | --- | --- | --- | --- | --- | --- | --- | --- | --- |
| CCN(CC)CCNCc1ccc(Cl)c(Cl)c1 [Compound 1, N′-(3,4-dichloro-benzyl)-N,N-diethyl-ethane-1,2-diamine] | 2.9 µM | 1.76 µM | 1.58 µM | 2.3 µM | 4.89 µM | – | – | – | – | – | – |
| CN(C)CCNCc1ccc(Cl)c(Cl)c1 [Compound 3, N′-(3,4-Dichloro-benzyl)-N,N-dimethyl-ethane-1,2-diamine] | > 5 µM | 3.1 µM | 2.25 µM | > 5 µM | 8.41 µM | – | – | – | – | – | – |
| COCCNCc1ccc(Cl)c(Cl)c1 [Compound 5, (3,4-dichloro-benzyl)-(2-methoxy-ethyl)-amine] | > 5 µM | > 5 µM | 1.3 µM | > 5 µM | 14.2 µM | – | – | – | – | – | – |
| COC(CCCNCc1ccc(Cl)c(Cl)c1)OC [Compound 6, (3,4-Dichloro-benzyl)-(4,4-dimethoxy-butyl)-amine] | > 5 µM | 4.8 µM | 1.3 µM | 4.42 µM | 8.64 µM | – | – | – | – | – | – |
| CC(C)CCNCc1ccc(Cl)c(Cl)c1 [Compound 7, (3,4-Dichloro-benzyl)-(3-methyl-butyl)-amine] | 2 µM | 1.5 µM | 0.28 µM | 1.53 µM | 11.6 µM | – | – | – | – | – | – |
| CN(C)CCCNCc1ccc(Cl)c(Cl)c1 [Compound 8, N′-(3,4-Dichloro-benzyl)-N,N-dimethyl-propane-1,3-diamine] | 0.81 µM | 3.3 µM | 1.26 µM | 0.29 µM | 0.09 µM | – | – | – | – | – | – |
| CCN(CC)CCNC(=O)c1ccc(Cl)c(Cl)c1 [Compound 9, 3,4-Dichloro-N-(2-diethylamino-ethyl)-benzamide] | – | – | – | – | – | > 5 µM | 1.97 µM | 1.85 µM | 4.55 µM | 0.97 µM | – |
| CN(C)CCNC(=O)c1ccc(Cl)c(Cl)c1 [Compound 10, 3,4-Dichloro-N-(2-dimethylamino-ethyl)-benzamide] | – | – | – | – | – | > 5 µM | > 5 µM | 1.63 µM | > 5 µM | > 5 µM | – |
| CN(C)CCCNC(=O)c1ccc(Cl)c(Cl)c1 [Compound 12, 3,4-Dichloro-N-(3-dimethylamino-propyl)-benzamide] | – | – | – | – | – | > 5 µM | > 5 µM | 1.55 µM | > 5 µM | > 5 µM | – |
| CCN(CC)CCCNC(=O)c1ccc(Cl)c(Cl)c1 [Compound 13, 3,4-Dichloro-N-(3-diethylamino-propyl)-benzamide] | – | – | – | – | – | 4.5 µM | 5 µM | 2.27 µM | 2.22 µM | > 5 µM | – |
| CCNCc1ccc(Cl)c(Cl)c1 [Compound 17, (3,4-Dichloro-benzyl)-ethyl-amine] | > 5 µM | > 5 µM | 1.18 µM | > 5 µM | > 20 µM | – | – | – | – | – | – |
| CCCNCc1ccc(Cl)c(Cl)c1 [Compound 18, (3,4-Dichloro-benzyl)-propyl-amine] | 2.67 µM | > 5 µM | 0.73 µM | 4.38 µM | 11.8 µM | – | – | – | – | – | – |
| Clc1ccc(CNc2ccccc2)cc1Cl [Compound 19, (3,4-Dichloro-benzyl)-phenyl-amine] | 3.5 µM | > 5 µM | 1.27 µM | 4.14 µM | 13.8 µM | – | – | – | – | – | – |
| CCCCNCc1ccc(Cl)c(Cl)c1 [Compound 20, Butyl-(3,4-dichloro-benzyl)-amine] | 3.16 µM | 2.86 µM | 0.44 µM | 3.52 µM | > 20 µM | – | – | – | – | – | – |
| Clc1ccc(NCc2ccc(Cl)c(Cl)c2)cc1 [Compound 21, (4-Chloro-phenyl)-(3,4-dichloro-benzyl)-amine] | > 5 µM | 3.3 µM | 1.28 µM | 3.6 µM | 9.66 µM | – | – | – | – | – | – |
| O=C(/C=C/c1ccc(Cl)c(Cl)c1)c1ccccc1 [Compound 22, 3-(3,4-Dichloro-phenyl)-1-phenyl-propenone] | – | – | – | – | – | > 5 µM | > 5 µM | 3.67 µM | 1.66 µM | > 5 µM | – |

| Structure (SMILES) | IC50 [1, 6] | IC50 [2, 7] | IC50 [3, 6] | IC50 [4, 8] | IC50 [5, 9] | IC50 ([1]; Table 2, 0.1-5 uM) | IC50 [2, 10] | IC50 ([3]; Table 2, 0.1-5 uM) | IC50 ([4]; Table 2) | IC50 ([5]; Microcystis aeruginosa, 120 h) | IC50 ([5]; Table 1, 3,4-dichlorobenzylamines, 0.1-20 uM, cultured 5 days) |
| --- | --- | --- | --- | --- | --- | --- | --- | --- | --- | --- | --- |
| Fc1ccc(NCc2ccc(Cl)c(Cl)c2)cc1 [Compound 23, (3,4-Dichloro-benzyl)-(4-fluoro-phenyl)-amine] | > 5 µM | > 5 µM | 1.54 µM | > 5 µM | 11.1 µM | – | – | – | – | – | – |
| O=C(/C=C/c1ccc(Cl)c(Cl)c1)c1ccc(Cl)cc1 [Compound 24, 1-(4-Chloro-phenyl)-3-(3,4-dichloro-phenyl)-propenone] | – | – | – | – | – | > 5 µM | > 5 µM | 1.7 µM | 1.33 µM | > 5 µM | – |
| Clc1ccc(CNc2ccc(Br)cc2)cc1Cl [Compound 25, (4-Bromo-phenyl)-(3,4-dichloro-benzyl)-amine] | > 5 µM | 2.83 µM | 1.19 µM | 4 µM | 11.1 µM | – | – | – | – | – | – |
| Clc1ccc(CNCc2ccccn2)cc1Cl [Compound 26, (3,4-Dichloro-benzyl)-pyridin-2-ylmethyl-amine] | 3.4 µM | > 5 µM | 0.72 µM | > 5 µM | > 20 µM | – | – | – | – | – | – |
| Clc1ccc(CNCc2cccnc2)cc1Cl [Compound 27, (3,4-Dichloro-benzyl)-pyridin-3-ylmethyl-amine] | > 5 µM | 3.55 µM | 0.79 µM | 2 µM | > 20 µM | – | – | – | – | – | – |
| Clc1ccc(CNCc2ccncc2)cc1Cl [Compound 28, (3,4-Dichloro-benzyl)-pyridin-4-ylmethyl-amine] | > 5 µM | > 5 µM | 2.28 µM | > 5 µM | 15.2 µM | – | – | – | – | – | – |
| Clc1ccc(CNCc2ccccc2)cc1Cl [Compound 29, Benzyl-(3,4-dichloro-benzyl)-amine] | 3.46 µM | 3.23 µM | 0.6 µM | 2.75 µM | 14.4 µM | – | – | – | – | – | – |
| Clc1ccc(CNCCc2ccncc2)cc1Cl [Compound 30, (3,4-Dichloro-benzyl)-(2-pyridin-4-yl-ethyl)-amine] | 3.47 µM | 1.91 µM | 0.42 µM | 2.7 µM | > 20 µM | – | – | – | – | – | – |
| Clc1ccc(CNCCc2cccnc2)cc1Cl [Compound 31, (3,4-Dichloro-benzyl)-(2-pyridin-3-yl-ethyl)-amine] | 3.5 µM | 1.6 µM | 0.59 µM | 0.424 µM | > 20 µM | – | – | – | – | – | – |
| Clc1ccc(CNCCc2ccccn2)cc1Cl [Compound 32, (3,4-Dichloro-benzyl)-(2-pyridin-2-yl-ethyl)-amine] | 0.31 µM | 1.05 µM | 0.18 µM | 0.5 µM | 19.6 µM | – | – | – | – | – | – |
| Clc1ccc(CNCCc2ccccc2)cc1Cl [Compound 34, (3,4-Dichloro-benzyl)-phenethyl-amine] | 0.46 µM | 1.5 µM | 0.12 µM | 0.875 µM | 5.97 µM | – | – | – | – | – | – |
| Clc1ccc(CNC2CCCCCC2)cc1Cl [Compound 36, Cycloheptyl-(3,4-dichloro-benzyl)-amine] | 0.25 µM | 0.69 µM | 0.263 µM | 0.15 µM | 3.09 µM | – | – | – | – | – | – |
| CCN(CC)CCCNCc1ccc(Cl)c(Cl)c1 [Compound 48, N′-(3,4-Dichloro-benzyl)-N, N-diethyl-propane-1,3-diamine.2HCl] | – | – | – | – | – | – | – | – | – | – | 0.78 µM |
| CCCCN(CCCC)CCNCc1ccc(Cl)c(Cl)c1 [Compound 49, N,N-Dibutyl-N′-(3,4-dichlorobenzyl)ethane-1,2-diamine] | – | – | – | – | 0.88 µM | – | – | – | – | – | – |
| CCCCN(CCCC)CCCNCc1ccc(Cl)c(Cl)c1 [Compound 50, N,N-Dibutyl-N′-(3,4-dichlorobenzyl)propane-1,3-diamine] | – | – | – | – | 0.54 µM | – | – | – | – | – | – |
| OCCN(CCO)CCCNCc1ccc(Cl)c(Cl)c1 [Compound 51, 2-[[3-(3,4-Dichlorobenzylamino)propyl]-(2-hydroxyethyl)amino]ethanol] | – | – | – | – | 2.27 µM | – | – | – | – | – | – |
